Experimental data taken from patent US20150087627A1, “COMBINATION OF KINASE INHIBITORS AND USES THEREOF” (Intellikine LLC, priority 2011, published 2015).
Like-named read-outs stand apart in the source and are kept apart here.

What was measured:
PI3K γ (p110γ) = target: T1, PI3K γ (p110γ) (Homo sapiens, UniProt P48736); assay: PI 3-Kinase (human) HTRF assay, PI3K γ; assay type: biochemical; conditions: read-out: PI3K γ IC50
T1 construct: purchased Upstate / Millipore Corporation

mTOR = target: T2, mTOR (Homo sapiens, UniProt P42345); assay: mTOR kinase inhibition assay (radiometric or LanthaScreen TR-FRET); assay type: biochemical; conditions: read-out: mTORC IC50
T2 construct: purchased Invitrogen
Experimental: The cross-activity or lack thereof of one or more compounds of the present invention against mTor can be measured according to any procedures known in the art or methods disclosed below.
The compounds described herein can be tested against recombinant mTOR (Invitrogen) in an assay containing 50 mM HEPES, pH 7.5, 1 mM EGTA, 10 mM MgCl2, 2.5 mM, 0.01% Tween, 10 μM ATP (2.5 μCi of μ-32P-ATP), and 3 μg/mL BSA. Rat recombinant PHAS-1/4EBP1 (Calbiochem; 2 mg/mL) is used as a substrate. Reactions are terminated by spotting onto nitrocellulose, which is washed with 1M NaCl/1% phosphoric acid (approximately 6 times, 5-10 minutes each). Sheets are dried and the transferred radioactivity quantitated by phosphorimaging.
For instance, one can use Invitrogen's LanthaScreen™ Kinase assay to test the inhibitors of mTOR disclosed herein. This assay is a time resolved FRET platform that measures the phosphorylation of GFP labeled 4EBP1 by mTOR kinase. The kinase reaction is performed in a white 384 well microtiter plate. The total reaction volume is 20 ul per well and the reaction buffer composition is 50 mM HEPES pH7.5, 0.01% Polysorbate 20, 1 mM EGTA, 10 mM MnCl2, and 2 mM DTT. In the first step, each well receives 2 ul of test compound in 20% dimethylsulphoxide resulting in a 2% DMSO final concentration. […] The plate is sealed and incubated for 1 hour at room temperature. […] The plate is sealed, incubated for 1 hour at room temperature, and then read on a plate reader set up for LanthaScreen™ TR-FRET. Data is analyzed and IC50s are generated using GraphPad Prism 5.

PC3 = PC3 proliferation; assay type: cell-based; conditions: Homo sapiens, PC-3; PC3 cell line (compounds before 438); read-out: PC3 proliferation (nM)*
PI3K β (p110β/p85α) = target: T3, PI3K β (p110β/p85α) (Homo sapiens, UniProt P42338); assay: PI 3-Kinase (human) HTRF assay, PI3K β; assay type: biochemical; conditions: read-out: PI3K β IC50
T3 construct: purchased Upstate / Millipore Corporation
Experimental: (§1) Briefly, the assay is a time resolved FRET assay that indirectly measures PIP3 product formed by the activity of a PI3-K. The kinase reaction is performed in a microtiter plate (e.g., a 384 well microtiter plate). The total reaction volume is approximately 20 ul per well. In the first step, each well receives 2 ul of test compound in 20% dimethylsulphoxide resulting in a 2% DMSO final concentration. […] The plate is sealed and incubated for 15 minutes at room temperature. […] The plate is sealed and incubated for 1 hour at room temperature. The reaction is stopped by adding 5 ul of Stop Solution per well and then 5 ul of Detection Mix is added per well. The plate is sealed, incubated for 1 hour at room temperature, and then read on an appropriate plate reader. Data is analyzed and IC50s are generated using GraphPad Prism 5.

PI3K α (p110α/p85α) = target: T4, PI3K α (p110α/p85α) (Homo sapiens, UniProt P42336); assay: PI 3-Kinase (human) HTRF assay, PI3K α; assay type: biochemical; conditions: read-out: PI3K α IC50
T4 construct: purchased Upstate / Millipore Corporation

PI3K δ = target: T5, PI3K δ (Homo sapiens, UniProt O00329); assay: PI 3-Kinase (human) HTRF assay, PI3K δ; assay type: biochemical; conditions: read-out: PI3K δ IC50
T5 construct: purchased Upstate / Millipore Corporation
Experimental: as §1

T47D [1] = assay: T47D proliferation; assay type: cell-based; conditions: Homo sapiens; T47D cell line
T47D [2] = assay: T47D proliferation; assay type: cell-based; conditions: Homo sapiens; T47D cell line; remark: listed apart in the source
MDA-MB-361 = MDA-MB-361 proliferation; assay type: cell-based
[3] = tested on: MDA-MB-361 (PI3Kα/HER2 carcinoma) tumors; assay: In vivo efficacy in xenogenic mouse model of breast cancer; set-up: species or system Nude mice; conditions: 70 mg/kg, FIG. 9 left panel
Experimental: Blood glucose was monitored periodically following administration of treatment.
Treatment of tumors (MDA-MB-361) with compounds was discontinued on Day 30. Tumors were measured every 2-5 days.

MZB cells = MZB cells in mouse spleen (FIG. 9, right panel); assay type: in vivo; conditions: 70 mg/kg Pan-PI3K inhibitor compared to 60 mg/kg Compound A
[4] = tested on: anti-TNP antibody production; assay: TNP-Ficoll T-cell independent B-cell activation assay; assay type: in vivo, mice; conditions: 70 mg/kg GDC0941 for 7 days, FIG. 8
Experimental: To test the effects of the compounds of the present invention in suppressing T cell independent antibody production, the TNP-Ficoll B-cell activation assay is used as described herein. Compounds of the present invention are dissolved in an appropriate vehicle (e.g. 5% 1-methyl-2-pyrrolidinone, 85% polyethylene glycol 400, 10% Solutor). Compounds are administered orally approximately 1 hr before TNP-Ficoll treatment to 4-10 week old mice. To study the effects of the compounds on B-cell activation, one set of mice are grouped according to the following table:
Four animals in group 1, and eight animals in groups 2 to 7 are euthanized in CO2 2 hours after the last compound administration on day 7. […]
Serum samples are analyzed for anti-TNP antibody titers by ELISA as described herein. […] HRP substrate (200 μl ABTS solution+30% H2O2+10 ml citrate buffer) is added to each well at 100 μl/well, incubated 2-20 minutes in the dark and the amount of anti-TNP IgG3 is determined spectrophotometrically at 405 nm. Similarly, anti-TNP IgM and total anti-TNP Ab are determined using anti-mouse IgM-HRP and anti-mouse Ig-HRP respectively.
Antibody production was measured using ELISA and plotted as a percentage of control group that were treated with vehicle.

B cell function = assay: TNP-Ficoll immunization, antibody production (FIG. 8); assay type: in vivo; conditions: mice immunized with TNP-Ficoll, 7 days, 70 mg/kg GDC0941, 30, 60 or 120 mg/kg Compound A
Experimental: Mice were immunized with TNP-Ficoll and treated with 1) vehicle; 2) 70 mg/kg GDC0941; 3) 30 mg/kg Compound A; 4) 60 mg/kg Compound A; or 5) 120 mg/kg Compound A for 7 days. Antibody production was measured as a percentage of control group that were treated with vehicle.

marginal zone B cells = assay: Marginal zone B cells in mouse spleen (FACS); assay type: in vivo; conditions: 70 mg/kg, spleens harvested 2 hrs after the last dose, FIG. 9
Experimental: The effect of the compounds on the localization/viability of marginal zone B cells in the spleen is also evaluated at the conclusion of treatment.
Spleens were harvested 2 hrs after the last dose, processed and stained with appropriate antibodies (marginal zone B cell: B220+;CD23−;CD21hi) and analyzed for staining on GUAVA EasyCyte FACS machine using Guava Cytosoft 5.2 software.

[5] = tested on: preclinical breast cancer model; assay: Preclinical breast cancer model, tumor weight / volume; assay type: in vivo; conditions: 70 mg/kg Pan-PI3K inhibitor; 60 mg/kg compound A; FIG. 9 left panel

T2 sequence (P42345 1360-2549 limits assumed): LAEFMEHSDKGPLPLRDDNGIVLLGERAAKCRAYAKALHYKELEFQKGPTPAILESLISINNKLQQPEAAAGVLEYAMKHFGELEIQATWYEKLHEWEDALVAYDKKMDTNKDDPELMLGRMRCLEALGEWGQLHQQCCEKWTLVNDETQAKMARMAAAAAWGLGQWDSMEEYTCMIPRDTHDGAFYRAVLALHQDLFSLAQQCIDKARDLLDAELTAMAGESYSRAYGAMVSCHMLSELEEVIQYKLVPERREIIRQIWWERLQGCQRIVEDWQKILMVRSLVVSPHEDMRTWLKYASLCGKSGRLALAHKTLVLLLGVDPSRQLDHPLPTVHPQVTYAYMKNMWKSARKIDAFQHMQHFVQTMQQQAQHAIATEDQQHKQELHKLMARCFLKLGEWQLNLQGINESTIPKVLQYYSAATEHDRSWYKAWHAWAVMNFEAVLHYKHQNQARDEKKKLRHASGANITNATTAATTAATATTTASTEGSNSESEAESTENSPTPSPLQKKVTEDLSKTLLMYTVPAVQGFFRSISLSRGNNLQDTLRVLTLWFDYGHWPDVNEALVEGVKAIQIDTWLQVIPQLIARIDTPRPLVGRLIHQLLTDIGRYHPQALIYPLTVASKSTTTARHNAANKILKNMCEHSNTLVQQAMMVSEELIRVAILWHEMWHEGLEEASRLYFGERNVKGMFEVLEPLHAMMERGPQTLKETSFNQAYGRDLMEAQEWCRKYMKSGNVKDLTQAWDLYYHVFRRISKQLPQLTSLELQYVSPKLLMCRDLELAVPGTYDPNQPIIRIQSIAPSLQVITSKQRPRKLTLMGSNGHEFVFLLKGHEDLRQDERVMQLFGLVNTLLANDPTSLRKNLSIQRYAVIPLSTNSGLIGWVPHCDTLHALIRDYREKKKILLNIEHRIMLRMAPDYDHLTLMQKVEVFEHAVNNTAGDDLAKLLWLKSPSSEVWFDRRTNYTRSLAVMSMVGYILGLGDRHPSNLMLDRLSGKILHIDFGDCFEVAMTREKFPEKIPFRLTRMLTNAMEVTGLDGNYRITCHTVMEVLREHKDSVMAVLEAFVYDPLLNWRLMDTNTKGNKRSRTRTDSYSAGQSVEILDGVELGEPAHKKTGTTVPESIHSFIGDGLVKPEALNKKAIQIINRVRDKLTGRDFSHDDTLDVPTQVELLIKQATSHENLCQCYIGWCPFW
T1 sequence (P48736 whole entry): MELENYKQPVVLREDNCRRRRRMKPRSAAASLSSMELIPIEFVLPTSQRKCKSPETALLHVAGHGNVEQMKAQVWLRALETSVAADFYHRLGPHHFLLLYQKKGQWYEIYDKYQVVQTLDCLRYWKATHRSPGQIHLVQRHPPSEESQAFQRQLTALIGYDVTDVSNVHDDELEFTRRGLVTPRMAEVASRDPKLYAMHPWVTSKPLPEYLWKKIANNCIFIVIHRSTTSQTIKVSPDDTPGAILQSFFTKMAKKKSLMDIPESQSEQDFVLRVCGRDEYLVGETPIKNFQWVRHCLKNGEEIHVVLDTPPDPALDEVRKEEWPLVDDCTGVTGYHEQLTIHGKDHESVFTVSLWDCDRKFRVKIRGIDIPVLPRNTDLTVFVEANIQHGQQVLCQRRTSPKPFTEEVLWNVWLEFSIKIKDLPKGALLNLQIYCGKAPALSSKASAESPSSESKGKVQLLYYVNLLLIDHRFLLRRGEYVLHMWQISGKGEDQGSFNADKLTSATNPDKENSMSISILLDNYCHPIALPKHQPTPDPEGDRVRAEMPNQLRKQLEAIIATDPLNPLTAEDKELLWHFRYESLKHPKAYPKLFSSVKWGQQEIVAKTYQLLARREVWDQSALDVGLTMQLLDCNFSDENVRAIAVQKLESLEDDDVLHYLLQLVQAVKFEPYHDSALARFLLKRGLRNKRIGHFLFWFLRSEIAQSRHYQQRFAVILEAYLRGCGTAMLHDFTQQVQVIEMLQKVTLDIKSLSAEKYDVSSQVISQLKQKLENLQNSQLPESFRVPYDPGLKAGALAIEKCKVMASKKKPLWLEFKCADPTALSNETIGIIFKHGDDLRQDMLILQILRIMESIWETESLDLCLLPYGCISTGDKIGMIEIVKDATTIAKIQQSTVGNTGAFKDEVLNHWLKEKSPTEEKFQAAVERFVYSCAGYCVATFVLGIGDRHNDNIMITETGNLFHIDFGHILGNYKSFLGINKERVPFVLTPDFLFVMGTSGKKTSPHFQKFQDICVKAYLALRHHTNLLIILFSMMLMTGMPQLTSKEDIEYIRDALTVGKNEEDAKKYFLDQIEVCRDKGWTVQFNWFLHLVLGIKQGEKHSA
T3 sequence (P42338 whole entry): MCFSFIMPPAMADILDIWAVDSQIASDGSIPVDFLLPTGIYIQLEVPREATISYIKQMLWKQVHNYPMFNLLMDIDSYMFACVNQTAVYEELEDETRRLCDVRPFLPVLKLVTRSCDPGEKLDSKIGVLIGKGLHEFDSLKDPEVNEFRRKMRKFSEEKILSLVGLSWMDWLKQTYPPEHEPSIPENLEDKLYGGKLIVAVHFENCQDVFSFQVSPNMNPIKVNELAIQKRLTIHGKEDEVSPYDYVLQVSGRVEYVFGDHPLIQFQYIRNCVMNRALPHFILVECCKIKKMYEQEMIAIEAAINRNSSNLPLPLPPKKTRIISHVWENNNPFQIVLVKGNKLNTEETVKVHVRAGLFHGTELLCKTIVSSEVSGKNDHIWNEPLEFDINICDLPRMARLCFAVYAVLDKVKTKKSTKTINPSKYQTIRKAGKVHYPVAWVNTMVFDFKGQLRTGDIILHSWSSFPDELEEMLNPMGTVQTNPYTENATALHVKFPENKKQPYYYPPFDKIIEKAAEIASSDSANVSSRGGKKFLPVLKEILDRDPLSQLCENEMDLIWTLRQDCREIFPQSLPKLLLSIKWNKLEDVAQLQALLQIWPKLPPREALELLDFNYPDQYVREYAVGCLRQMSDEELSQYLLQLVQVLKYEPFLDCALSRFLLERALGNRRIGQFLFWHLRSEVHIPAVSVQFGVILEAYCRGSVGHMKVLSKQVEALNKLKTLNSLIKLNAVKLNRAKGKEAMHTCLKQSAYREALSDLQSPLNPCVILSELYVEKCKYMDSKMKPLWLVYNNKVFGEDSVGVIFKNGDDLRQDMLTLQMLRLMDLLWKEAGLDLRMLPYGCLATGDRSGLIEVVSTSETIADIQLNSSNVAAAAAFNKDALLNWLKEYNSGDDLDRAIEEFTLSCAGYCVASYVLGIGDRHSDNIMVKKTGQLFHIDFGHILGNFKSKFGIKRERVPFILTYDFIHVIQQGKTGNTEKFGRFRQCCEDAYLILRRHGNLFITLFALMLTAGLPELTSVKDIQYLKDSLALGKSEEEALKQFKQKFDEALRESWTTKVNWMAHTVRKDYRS
T3 sequence (P27986 whole entry partner): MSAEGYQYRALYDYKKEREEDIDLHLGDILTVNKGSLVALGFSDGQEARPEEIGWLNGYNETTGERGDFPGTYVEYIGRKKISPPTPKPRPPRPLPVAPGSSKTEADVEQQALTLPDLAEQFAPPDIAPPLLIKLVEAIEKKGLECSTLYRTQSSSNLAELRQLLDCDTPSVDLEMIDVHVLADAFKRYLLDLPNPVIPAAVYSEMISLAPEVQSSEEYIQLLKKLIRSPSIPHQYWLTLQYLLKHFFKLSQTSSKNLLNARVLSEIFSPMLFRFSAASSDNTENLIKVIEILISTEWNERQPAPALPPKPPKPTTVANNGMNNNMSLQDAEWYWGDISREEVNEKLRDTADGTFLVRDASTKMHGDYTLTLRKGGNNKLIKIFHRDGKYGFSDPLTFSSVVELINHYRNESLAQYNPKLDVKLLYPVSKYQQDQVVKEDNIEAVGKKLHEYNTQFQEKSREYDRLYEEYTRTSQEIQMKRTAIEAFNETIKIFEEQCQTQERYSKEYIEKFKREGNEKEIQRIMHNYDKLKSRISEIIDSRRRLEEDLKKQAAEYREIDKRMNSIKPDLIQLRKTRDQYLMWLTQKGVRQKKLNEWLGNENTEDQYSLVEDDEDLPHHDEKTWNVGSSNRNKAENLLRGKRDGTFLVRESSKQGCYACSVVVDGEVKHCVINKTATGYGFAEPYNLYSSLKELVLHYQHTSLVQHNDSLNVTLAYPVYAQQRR

SMILES	IC50 (PI3K γ (p110γ))	IC50 (mTOR)	IC50 (PC3)	IC50 (PI3K β (p110β/p85α))	IC50 (PI3K α (p110α/p85α))	IC50 (PI3K δ)	also measured
CC(=O)Nc1nc2ccc(-c3ccc4nccc(-c5ccncc5)c4c3)cc2s1 [Compound 2]	< 1000 nM	> 10000 nM	< 10000 nM	> 10000 nM	< 1000 nM	> 10000 nM	
Nc1nc2ccc(-c3ccc4nccc(-c5ccncc5)c4c3)cc2o1 [Compound 4]		< 1000 nM	< 100 nM	< 100 nM	< 100 nM	< 100 nM	
Nc1nc2cc(-c3ccc4ncc(-c5ccncc5)n4c3)ccc2o1 [Compound 6]		< 10000 nM	< 10000 nM	< 10000 nM	< 100 nM	< 1000 nM	IC50 (T47D [1]): < 1000 nM
Cn1c(=O)n(-c2ccc(C(C)(C)C#N)cc2)c2c3cc(-c4ccc5oc(N)nc5c4)ccc3ncc21 [Compound 7]	< 100 nM	< 100 nM	< 100 nM	< 100 nM	< 100 nM	< 100 nM	
Nc1nc2cc(-c3ccc4ncc(-c5ccncc5)n4n3)ccc2o1 [Compound 10]	< 100 nM	< 1000 nM	< 1000 nM	< 1000 nM	< 100 nM		IC50 (T47D [1]): < 1000 nM
Nc1nc2cc(-c3ccc4nnc(C(=O)N5CCOCC5)n4c3)ccc2o1 [Compound 282]	> 10000 nM			> 10000 nM	> 10000 nM	> 10000 nM	IC50 (T47D [2]): > 10000 nM
COc1ncc(-c2ccc3ncc(C(=O)N4CCOCC4)n3c2)cc1NS(=O)(=O)c1cccnc1 [Compound 462]	< 100 nM			< 100 nM	< 100 nM	< 100 nM	IC50 (MDA-MB-361; Homo sapiens, MDA-MB-361, Starting with compound 438, proliferation data was obtained using an MDA-MB-361 cell line, read-out: PC3 proliferation (nM)*): < 1000 nM
Nc1nc2cc(-c3ccc4ncc(N5CCNC(=O)C5)cc4n3)ccc2o1 [Compound 580]							IC50 (PI3K γ (p110γ); Table 4 (PI3K α inhibitors)): < 100 nM; IC50 (PI3K β (p110β/p85α); Table 4 (PI3K α inhibitors)): < 1000 nM; IC50 (MDA-MB-361; Homo sapiens, MDA-MB-361, Table 4 (PI3K α inhibitors), MDA-MB-361, read-out: MDA-MB-361 proliferation (nM)*): < 1000 nM; IC50 (PI3K α (p110α/p85α); Table 4 (PI3K α inhibitors)): < 100 nM; IC50 (PI3K δ; Table 4 (PI3K α inhibitors)): < 10000 nM
C[C@H]1CN(C2CN(c3cnc4ccc(-c5ccc6oc(N)nc6c5)nc4n3)C2)CCN1C [Compound 606]							IC50 (PI3K γ (p110γ); Table 4 (PI3K α inhibitors)): < 10000 nM; IC50 (mTOR; Table 4 (PI3K α inhibitors)): > 10000 nM; IC50 (PI3K β (p110β/p85α); Table 4 (PI3K α inhibitors)): < 10000 nM; IC50 (MDA-MB-361; Table 4 (PI3K α inhibitors), MDA-MB-361, read-out: MDA-MB-361 proliferation (nM)*): < 1000 nM; IC50 (PI3K α (p110α/p85α); Table 4 (PI3K α inhibitors)): < 100 nM; IC50 (PI3K δ; Table 4 (PI3K α inhibitors)): < 1000 nM
CS(=O)(=O)N1CCN(Cc2cc3nc(-c4cccc5[nH]ncc45)nc(N4CCOCC4)c3s2)CC1 [Pan-PI3K inhibitor, reference compound]							tumor weight [3]: reduction in tumor weight; presence of MZB cells in mouse spleen (MZB cells): reduced presence of MZB cells; B cell function in vivo (antibody production, ELISA) [4]: blocks B cell function in vivo; B cell function in vivo (antibody production as percentage of vehicle control) (B cell function): blocks B cell function in vivo; presence of MZB cells in mouse spleen (marginal zone B cells): reduced presence of MZB cells; tumor weight of a breast cancer model [5]: reduction in tumor weight
